Measured values reported in article doi:10.1101/2021.10.07.463234v2 (biorxiv, 2021).
Where a name gives a salt, the structure may show the parent alone. Square brackets hold non-standard residues; d marks the D form. Peptide text beside a SMILES is read from it. pGlu = O=C1CC[C@@H](C(=O)O)N1; Thz = O=C(O)[C@@H]1CSCN1

Target: SARS-CoV-2 Mac1 (Severe acute respiratory syndrome coronavirus 2, UniProt P0DTD1)
Experiment: biochemical
Details: for inhibition at 100 µM: read-out: %inhibition; for %inhibition: 100 µM, inhibitor

Row | Structure (SMILES) | inhibition at 100 µM [%] | %inhibition [%]
1 | NC[C@@H]1O[C@H](O[C@H]2[C@@H](O)[C@H](O[C@@H]3[C@@H](O)[C@H](N)C[C@H](N)[C@H]3O[C@H]3O[C@H](CO)[C@@H](O)[C@H](O)[C@H]3N)O[C@@H]2CO)[C@H](N)[C@@H](O)[C@@H]1O [Paromomycin Sulfate] | 0.814 | 
2 | Fc1ccc([C@@H]2CCNC[C@H]2COc2ccc3c(c2)OCO3)cc1 [Paroxetine HCl] |  | 28.69
3 | Fc1ccc([C@@H]2CCNC[C@H]2COc2ccc3c(c2)OCO3)cc1 [Paroxetine mesylate] |  | 0
4 | C/C(=C\c1csc(C)n1)[C@@H]1C[C@@H]2O[C@]2(C)CCC[C@H](C)[C@H](O)[C@@H](C)C(=O)C(C)(C)[C@@H](O)CC(=O)O1 [Patupilone (EPO906, Epothilone B)] | 19.2 | 
5 | Cc1ccc(Nc2nccc(N(C)c3ccc4c(C)n(C)nc4c3)n2)cc1S(N)(=O)=O [Pazopanib HCl (GW786034 HCl)] |  | 31.56
6 | Cc1ccc(Nc2nccc(N(C)c3ccc4c(C)n(C)nc4c3)n2)cc1S(N)(=O)=O [Pazopanib] |  | 12.94
7 | C[C@H]1COc2c(C3(N)CC3)c(F)cc3c(=O)c(C(=O)O)cn1c23 [Pazufloxacin mesylate] | 0 | 
8 | CCOc1cc2ncc(C#N)c(Nc3ccc(F)c(Cl)c3)c2cc1NC(=O)/C=C/CN(C)C [Pelitinib (EKB-569)] | 0 | 
9 | Nc1nc2[nH]cc(CCc3ccc(C(=O)N[C@@H](CCC(=O)O)C(=O)O)cc3)c2c(=O)[nH]1 [Pemetrexed Disodium Hydrate] | 6.24 | 
10 | Nc1nc2[nH]cc(CCc3ccc(C(=O)N[C@@H](CCC(=O)O)C(=O)O)cc3)c2c(=O)[nH]1 [Pemetrexed] |  | 4.612
11 | Cc1cccn2c(=O)c(-c3nnn[nH]3)cnc12 [Pemirolast potassium] | 0 | 
12 | CN1C(C)(C)CCCC1(C)C [Pempidine] | 28.2 | 
13 | Nc1nc(O)c2ncn(CCC(CO)CO)c2n1 [Penciclovir] | 14.9 | 
14 | OC1(c2ccc(Cl)c(C(F)(F)F)c2)CCN(CCCC(c2ccc(F)cc2)c2ccc(F)cc2)CC1 [Penfluridol] | 5.86 | 
15 | CC(C)(S)[C@@H](N)C(=O)O [Penicillamine] | 0.561 | 
16 | CC1(C)S[C@@H]2[C@H](NC(=O)Cc3ccccc3)C(=O)N2[C@H]1C(=O)O [Penicillin G Sodium] | 5.64 | 
17 | CC1(C)S[C@@H]2[C@H](NC(=O)COc3ccccc3)C(=O)N2[C@H]1C(=O)O [Penicillin V potassium salt] | 0 | 
18 | N=C(N)c1ccc(OCCCCCOc2ccc(C(=N)N)cc2)cc1 [Pentamidine isethionate] | 0 | 
19 | CC(=O)CCCCn1c(=O)c2c(ncn2C)n(C)c1=O [Pentoxifylline] | 19.6 | 
20 | CCN(CC)CCOCCOC(=O)C1(c2ccccc2)CCCC1 [Pentoxyverine Citrate] | 24.6 | 
21 | CCCN1C[C@H](CSC)C[C@@H]2c3cccc4[nH]cc(c34)C[C@H]21 [Pergolide Mesylate] | 7.58 | 
22 | CCC[C@H](N[C@@H](C)C(=O)N1[C@H](C(=O)O)C[C@@H]2CCCC[C@@H]21)C(=O)OCC [Perindopril Erbumine] | 5.79 | 
23 | OCCN1CCN(CCCN2c3ccccc3Sc3ccc(Cl)cc32)CC1 [Perphenazine] | 0 | 
24 | FC(F)(F)c1ccc(CNc2ccc(Cc3c[nH]c4ncc(Cl)cc34)cn2)cn1 [Pexidartinib (PLX3397)] | 0.21 | 
25 | Cc1ccc(-n2nc(C(C)(C)C)cc2NC(=O)NCc2cc(F)ccc2Oc2ccc3c(cnn3CCO)c2)cc1 [Pexmetinib (ARRY-614)] | 0.769 | 
26 | CCOc1ccc(NC(C)=O)cc1 [Phenacetin] | 11.4 | 
27 | Nc1ccc(/N=N/c2ccccc2)c(N)n1 [Phenazopyridine HCl] | 17 | 

Row | Structure (SMILES) | inhibition at 100 µM [%] | %inhibition [%]
28 | N=C(N)NC(=N)NCCc1ccccc1 [Phenformin HCl] | 30.5 | 
29 | O=C1c2ccccc2C(=O)C1c1ccccc1 [Phenindione] | 28.8 | 
30 | CN(C)CCC(c1ccccc1)c1ccccn1 (stereo not shown) [Pheniramine Maleate] | 9.19 | 
31 | c1ccc2c(c1)Nc1ccccc1S2 [Phenothiazine] | 18.2 | 
32 | CC(COc1ccccc1)N(CCCl)Cc1ccccc1 (stereo not shown) [Phenoxybenzamine HCl] | 0 | 
33 | Cc1ccc(N(CC2=NCCN2)c2cccc(O)c2)cc1 [Phentolamine Mesylate] | 0 | 
34 | CCCCC1C(=O)N(c2ccccc2)N(c2ccccc2)C1=O [Phenylbutazone] | 0 | 
35 | CNC[C@H](O)c1cccc(O)c1 [Phenylephrine HCl] | 14.5 | 
36 | O=C1N=C(O)NC1(c1ccccc1)c1ccccc1 [Phenytoin Sodium] | 16 | 
37 | O=C1NC(=O)C(c2ccccc2)(c2ccccc2)N1 [Phenytoin] | 14.7 | 
38 | CC(=O)NS(=O)(=O)c1ccc(NC(=O)c2ccccc2C(=O)O)cc1 [Phthalylsulfacetamide] | 6.67 | 
39 | CS(=O)(=O)N1CCN(Cc2cc3nc(-c4cccc5[nH]ncc45)nc(N4CCOCC4)c3s2)CC1 [Pictilisib (GDC-0941)] | 10.2 | 
40 | O=C1CC[C@@H](C(=O)N2CSC[C@H]2C(=O)O)N1 [Pidotimod] ([pGlu]-[Thz]-OH) | 4.19 | 
41 | COc1ccc(Cl)c(Nc2nc3ccccc3nc2NS(=O)(=O)c2cccc(NC(=O)C(C)(C)N)c2)c1 [Pilaralisib (XL147)] | 31.9 | 
42 | CC[C@@H]1C(=O)OC[C@@H]1Cc1cncn1C [Pilocarpine HCl] | 0 | 
43 | CC(C)COc1ccc(CNC(=O)N(Cc2ccc(F)cc2)C2CCN(C)CC2)cc1 [Pimavanserin] | 1.16 | 
44 | CC[C@@H]1/C=C(\C)C[C@H](C)C[C@H](OC)[C@H]2O[C@@](O)(C(=O)C(=O)N3CCCC[C@H]3C(=O)O[C@H](/C(C)=C/[C@@H]3CC[C@H](Cl)[C@H](OC)C3)[C@H](C)[C@@H](O)CC1=O)[C@H](C)C[C@@H]2OC [Pimecrolimus] | 25.5 | 
45 | COc1ccc(-c2nc3cc(C4=NNC(=O)CC4C)ccc3[nH]2)cc1 (stereo not shown) [Pimobendan] | 13 | 
46 | O=c1[nH]c2ccccc2n1C1CCN(CCCC(c2ccc(F)cc2)c2ccc(F)cc2)CC1 [Pimozide] | 0 | 
47 | CCc1ccc(CCOc2ccc(CC3SC(=O)NC3=O)cc2)nc1 (stereo not shown) [Pioglitazone] | 0 | 
48 | CCn1cc(C(=O)O)c(=O)c2cnc(N3CCNCC3)nc21 [Pipemidic acid] | 0 | 
49 | CCN1CCN(C(=O)N[C@@H](C(=O)N[C@@H]2C(=O)N3[C@@H]2SC(C)(C)[C@@H]3C(=O)O)c2ccccc2)C(=O)C1=O [Piperacillin Sodium] | 24.2 | 
50 | C1CNCCN1 [Piperazine] | 5.65 | 
51 | O=C(/C=C/C=C/c1ccc2c(c1)OCO2)N1CCCCC1 [Piperine] | 0 | 
52 | NC(=O)CN1CCCC1=O [Piracetam] | 9.88 | 
53 | Cc1ccc(=O)n(-c2ccccc2)c1 [Pirfenidone] | 15.4 | 
54 | CCn1cc(C(=O)O)c(=O)c2cnc(N3CCCC3)nc21 [Piromidic Acid] | 10.1 | 

Row | Structure (SMILES) | inhibition at 100 µM [%] | %inhibition [%]
55 | CN1C(C(=O)Nc2ccccn2)=C(O)c2ccccc2S1(=O)=O [Piroxicam] | 38 | 
56 | O=C(O)C[C@H](O)C[C@H](O)/C=C/c1c(C2CC2)nc2ccccc2c1-c1ccc(F)cc1 [Pitavastatin Calcium] | 13.3 | 
57 | CN1CCC(=C2c3ccccc3CCc3sccc32)CC1 [Pizotifen Malate] | 0 | 
58 | c1cc(CN2CCCNCCNCCCNCC2)ccc1CN1CCCNCCNCCCNCC1 [Plerixafor (AMD3100)] | 8.18 | 
59 | Nc1cccc2c1C(=O)N(C1CCC(=O)NC1=O)C2=O (stereo not shown) [Pomalidomide] | 0 | 
60 | Cc1ccc(C(=O)Nc2ccc(CN3CCN(C)CC3)c(C(F)(F)F)c2)cc1C#Cc1cnc2cccnn12 [Ponatinib (AP24534)] | 5.09 | 
61 | CCC/N=C1\S/C(=C\c2ccc(OC[C@H](O)CO)c(Cl)c2)C(=O)N1c1ccccc1C [Ponesimod] | 0 | 
62 | CC[C@@H]([C@H](C)O)n1ncn(-c2ccc(N3CCN(c4ccc(OC[C@@H]5CO[C@@](Cn6cncn6)(c6ccc(F)cc6F)C5)cc4)CC3)cc2)c1=O [Posaconazole] | 37.1 | 
63 | C[C@]12CCC(=O)C=C1C=C[C@@H]1[C@@H]2CC[C@@]2(C)[C@H]1CC[C@@]2(O)CCC(=O)O [Potassium Canrenoate] | 0 | 
64 | CC(=O)O [Potassium acetate] | 11.3 | 
65 | C=CN1CCCC1=O [Povidone iodine] | 0 | 
66 | C=CC(=O)N1CCC(Oc2cc3c(Nc4ccc(Cl)c(Cl)c4F)ncnc3cc2OC)CC1 [Poziotinib (HM781-36B)] | 0 | 
67 | CCCCc1nc2cc(/C=C/C(=O)NO)ccc2n1CCN(CC)CC [Pracinostat (SB939)] | 3.38 | 
68 | C#CCC(Cc1cnc2nc(N)nc(N)c2n1)c1ccc(C(=O)N[C@@H](CCC(=O)O)C(=O)O)cc1 (stereo partly shown) [Pralatrexate] | 13.2 | 
69 | C[n+]1ccccc1C=NO [Pralidoxime Iodide] | 22.4 | 
70 | C[n+]1ccccc1/C=N/O [Pralidoxime chloride] | 8.15 | 
71 | CCCN[C@H]1CCc2nc(N)sc2C1 [Pramipexole 2HCl Monohydrate] |  | 5.796
72 | CCCN[C@H]1CCc2nc(N)sc2C1 [Pramipexole dihydrochloride] |  | 10.17
73 | CCCN[C@H]1CCc2nc(N)sc2C1 [Pramipexole] |  | 0
74 | CC(C)N(CCNC(=O)CN1CCCC1=O)C(C)C [Pramiracetam] | 1.25 | 
75 | CCCCOc1ccc(OCCCN2CCOCC2)cc1 [Pramoxine HCl] | 25.7 | 
76 | O=C(Nc1cccc2c(=O)cc(-c3nnn[nH]3)oc12)c1ccc(OCCCCc2ccccc2)cc1 [Pranlukast] | 4.22 | 
77 | CC(C(=O)O)c1ccc2c(c1)Cc1cccnc1O2 (stereo not shown) [Pranoprofen] | 17.8 | 
78 | CC(=O)Oc1cc2c(s1)CCN(C(C(=O)C1CC1)c1ccccc1F)C2 (stereo not shown) [Prasugrel Hydrochloride] |  | 0
79 | CC(=O)Oc1cc2c(s1)CCN(C(C(=O)C1CC1)c1ccccc1F)C2 (stereo not shown) [Prasugrel] |  | 25.16
